Reference: ChEMBL document CHEMBL1149372, “Discovery of novel and potent thiazoloquinazolines as selective Aurora A and B kinase inhibitors” (J Med Chem, 2006)
In brackets after ≈: the same amount, converted by molar mass.

Legend:
[1] = Inhibition of Aurora B-INCENP complex activity
SW-620 [2] = assay: Inhibition of phosphorylation of histone H3 in human SW620 cells; type: functional, cell-based
Aurora kinase A = target: T1, Aurora kinase A (Homo sapiens, UniProt O14965)
T1 sequence (O14965 whole entry): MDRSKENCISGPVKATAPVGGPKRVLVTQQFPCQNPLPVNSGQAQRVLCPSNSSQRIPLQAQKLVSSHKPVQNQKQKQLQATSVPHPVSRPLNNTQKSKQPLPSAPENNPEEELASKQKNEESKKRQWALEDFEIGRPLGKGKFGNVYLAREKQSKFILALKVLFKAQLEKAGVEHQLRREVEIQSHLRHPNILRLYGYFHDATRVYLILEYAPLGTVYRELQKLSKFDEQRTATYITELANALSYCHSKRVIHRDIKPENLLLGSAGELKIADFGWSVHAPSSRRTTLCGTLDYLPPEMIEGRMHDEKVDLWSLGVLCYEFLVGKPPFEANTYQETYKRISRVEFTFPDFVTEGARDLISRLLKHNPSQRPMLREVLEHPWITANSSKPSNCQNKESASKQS
Description: Inhibition of Aurora A kinase activity

Aurora kinase B = Aurora kinase B (Homo sapiens, UniProt Q96GD4); assay: Inhibition of Aurora-B immunoprecipitated from mitotic cells; type: functional
[3] = Volume of distribution in rat; type: ADME, organism-based; details: in vivo, read-out: Vdss
[4] = Clearance in rat; type: ADME, organism-based; details: in vivo
[5] = Half life in rat; type: ADME, organism-based; details: in vivo
[6] = target: Cyclin-dependent kinase 2 (Homo sapiens, UniProt P24941); assay: Inhibitory activity against CDK2
[7] = target: Tyrosine-protein kinase CSK (Homo sapiens, UniProt P41240); assay: Inhibitory activity against CSK
[8] = Solubility in phosphate buffer at pH 7.4, 25 degC; type: physicochemical
Focal adhesion kinase 1 = Focal adhesion kinase 1 (Homo sapiens, UniProt Q05397); assay: Inhibitory activity against FAK
[9] = target: Fibroblast growth factor receptor (Homo sapiens, UniProt P22607+P11362+P22455+P21802); assay: Inhibitory activity against FGFR; type: protein assay
[10] = target: Insulin-like growth factor 1 receptor (Homo sapiens, UniProt P08069); assay: Inhibitory activity against IGFR
[11] = target: T2, Tyrosine-protein kinase JAK3 (Homo sapiens, UniProt P52333); assay: Inhibitory activity against JAK3
T2 sequence (P52333 whole entry): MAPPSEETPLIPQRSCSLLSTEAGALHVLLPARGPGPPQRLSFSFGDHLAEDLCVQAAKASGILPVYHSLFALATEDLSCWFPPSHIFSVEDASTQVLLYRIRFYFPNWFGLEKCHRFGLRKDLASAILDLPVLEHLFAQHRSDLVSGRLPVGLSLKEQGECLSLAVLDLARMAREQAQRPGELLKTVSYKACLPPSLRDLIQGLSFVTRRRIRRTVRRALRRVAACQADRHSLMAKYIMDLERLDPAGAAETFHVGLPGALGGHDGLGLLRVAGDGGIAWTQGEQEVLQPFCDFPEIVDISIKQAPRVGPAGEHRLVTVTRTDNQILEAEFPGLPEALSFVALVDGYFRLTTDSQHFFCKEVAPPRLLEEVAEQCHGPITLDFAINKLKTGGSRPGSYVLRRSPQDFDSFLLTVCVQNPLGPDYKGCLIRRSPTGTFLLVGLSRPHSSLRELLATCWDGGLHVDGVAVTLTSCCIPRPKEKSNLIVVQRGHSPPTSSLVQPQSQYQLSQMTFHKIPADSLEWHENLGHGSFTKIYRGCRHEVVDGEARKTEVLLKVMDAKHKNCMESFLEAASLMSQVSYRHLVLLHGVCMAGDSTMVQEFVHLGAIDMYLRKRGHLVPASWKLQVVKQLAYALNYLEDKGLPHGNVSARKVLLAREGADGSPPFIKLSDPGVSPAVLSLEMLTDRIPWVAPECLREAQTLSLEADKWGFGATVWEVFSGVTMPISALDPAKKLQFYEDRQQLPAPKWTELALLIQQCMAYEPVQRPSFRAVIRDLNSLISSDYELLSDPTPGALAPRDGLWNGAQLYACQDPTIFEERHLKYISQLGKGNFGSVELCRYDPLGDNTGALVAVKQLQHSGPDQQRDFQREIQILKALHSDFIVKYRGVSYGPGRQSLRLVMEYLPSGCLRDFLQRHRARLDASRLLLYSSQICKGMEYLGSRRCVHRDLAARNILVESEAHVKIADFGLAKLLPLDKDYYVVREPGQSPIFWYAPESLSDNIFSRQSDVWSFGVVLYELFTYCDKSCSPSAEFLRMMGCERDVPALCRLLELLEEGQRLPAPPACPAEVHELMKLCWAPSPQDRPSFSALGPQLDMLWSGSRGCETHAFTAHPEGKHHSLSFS

[12] = target: Mitogen-activated protein kinase 8 (Homo sapiens, UniProt P45983); assay: Inhibitory activity against JNK1alpha
[13] = target: Vascular endothelial growth factor receptor 2 (Homo sapiens, UniProt P35968); assay: Inhibitory activity against KDR
[14] = target: Mitogen-activated protein kinase 14 (Homo sapiens, UniProt Q16539); assay: Inhibitory activity against p38-alpha MAPK
[15] = target: cAMP-dependent protein kinase (PKA) (Homo sapiens, UniProt P22694+P17612+P22612); assay: Inhibitory activity against PKA; type: protein assay
[16] = target: Proto-oncogene tyrosine-protein kinase Src (Homo sapiens, UniProt P12931); assay: Inhibitory activity against SRC
[17] = Free drug level in rat serum albumin; type: ADME, organism-based
[18] = Distribution coefficient of the compound, log D at pH 7.4; type: physicochemical; details: octanol/water
SW-620 [19] = assay: Antiproliferative activity against human colorectal carcinoma SW620 cells
[20] = Solubility in Tris buffer at pH 9.0, 25 degC; type: physicochemical
Mus musculus = species on record: Mus musculus; assay: Conversion to parent, N-(3-fluorophenyl)-2-{2-[(7-{3 -[4-(hydroxymethyl)piperidin-1 -yl]propoxy}-6-methoxyquinazol in-4-yl)amino]-1,3-thiazol-5-y l}acetamide in mouse plasma; type: ADME, organism-based; details: in vivo

Mitogen-activated protein kinase 8, sequence (P45983 whole entry): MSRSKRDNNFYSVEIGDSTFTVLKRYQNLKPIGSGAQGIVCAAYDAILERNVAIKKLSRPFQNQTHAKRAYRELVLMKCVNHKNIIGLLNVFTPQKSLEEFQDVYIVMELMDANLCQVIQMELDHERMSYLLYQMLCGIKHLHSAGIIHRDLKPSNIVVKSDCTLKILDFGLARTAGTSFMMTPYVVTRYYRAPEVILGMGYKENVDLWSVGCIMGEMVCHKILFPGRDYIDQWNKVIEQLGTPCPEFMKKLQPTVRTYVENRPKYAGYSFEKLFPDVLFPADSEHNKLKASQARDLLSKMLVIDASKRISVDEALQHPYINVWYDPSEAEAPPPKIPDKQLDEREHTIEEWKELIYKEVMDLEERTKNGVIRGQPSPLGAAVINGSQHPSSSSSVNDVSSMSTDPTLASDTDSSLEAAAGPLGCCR
Vascular endothelial growth factor receptor 2, sequence (P35968 whole entry): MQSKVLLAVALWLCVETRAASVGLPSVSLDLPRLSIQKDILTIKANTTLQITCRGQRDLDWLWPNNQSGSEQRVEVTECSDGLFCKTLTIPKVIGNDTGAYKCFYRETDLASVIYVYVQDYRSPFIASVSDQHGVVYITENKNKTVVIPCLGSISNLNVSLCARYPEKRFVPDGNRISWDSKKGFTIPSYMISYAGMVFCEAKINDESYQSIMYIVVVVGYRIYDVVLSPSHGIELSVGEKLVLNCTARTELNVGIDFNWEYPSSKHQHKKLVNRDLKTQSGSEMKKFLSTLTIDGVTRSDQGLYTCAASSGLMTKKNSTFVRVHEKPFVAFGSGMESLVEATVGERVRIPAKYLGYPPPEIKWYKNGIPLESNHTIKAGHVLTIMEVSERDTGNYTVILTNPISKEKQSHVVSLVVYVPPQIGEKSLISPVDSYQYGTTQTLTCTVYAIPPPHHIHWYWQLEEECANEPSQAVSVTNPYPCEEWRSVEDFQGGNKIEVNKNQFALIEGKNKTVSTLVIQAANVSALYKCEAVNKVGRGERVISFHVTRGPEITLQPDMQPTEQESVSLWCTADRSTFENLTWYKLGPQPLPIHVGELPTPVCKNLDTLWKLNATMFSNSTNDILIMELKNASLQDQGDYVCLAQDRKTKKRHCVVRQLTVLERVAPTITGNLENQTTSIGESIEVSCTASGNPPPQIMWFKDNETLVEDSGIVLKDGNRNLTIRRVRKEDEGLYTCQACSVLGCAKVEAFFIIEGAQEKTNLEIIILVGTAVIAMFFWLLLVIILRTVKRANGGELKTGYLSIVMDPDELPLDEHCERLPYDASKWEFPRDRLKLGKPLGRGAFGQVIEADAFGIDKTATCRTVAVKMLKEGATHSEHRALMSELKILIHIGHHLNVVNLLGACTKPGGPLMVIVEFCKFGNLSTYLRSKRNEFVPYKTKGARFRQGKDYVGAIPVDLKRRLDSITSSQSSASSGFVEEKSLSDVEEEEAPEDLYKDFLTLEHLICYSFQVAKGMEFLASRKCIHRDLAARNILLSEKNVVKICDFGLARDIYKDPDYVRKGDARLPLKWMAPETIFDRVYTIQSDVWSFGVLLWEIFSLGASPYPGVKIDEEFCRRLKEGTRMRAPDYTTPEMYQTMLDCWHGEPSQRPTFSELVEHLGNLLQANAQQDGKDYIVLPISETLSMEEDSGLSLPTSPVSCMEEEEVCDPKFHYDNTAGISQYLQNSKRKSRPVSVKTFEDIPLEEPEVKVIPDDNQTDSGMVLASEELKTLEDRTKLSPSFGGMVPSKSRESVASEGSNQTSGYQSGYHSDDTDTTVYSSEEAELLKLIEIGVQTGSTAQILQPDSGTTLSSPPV
Insulin-like growth factor 1 receptor, sequence (P08069 31-736 limits assumed): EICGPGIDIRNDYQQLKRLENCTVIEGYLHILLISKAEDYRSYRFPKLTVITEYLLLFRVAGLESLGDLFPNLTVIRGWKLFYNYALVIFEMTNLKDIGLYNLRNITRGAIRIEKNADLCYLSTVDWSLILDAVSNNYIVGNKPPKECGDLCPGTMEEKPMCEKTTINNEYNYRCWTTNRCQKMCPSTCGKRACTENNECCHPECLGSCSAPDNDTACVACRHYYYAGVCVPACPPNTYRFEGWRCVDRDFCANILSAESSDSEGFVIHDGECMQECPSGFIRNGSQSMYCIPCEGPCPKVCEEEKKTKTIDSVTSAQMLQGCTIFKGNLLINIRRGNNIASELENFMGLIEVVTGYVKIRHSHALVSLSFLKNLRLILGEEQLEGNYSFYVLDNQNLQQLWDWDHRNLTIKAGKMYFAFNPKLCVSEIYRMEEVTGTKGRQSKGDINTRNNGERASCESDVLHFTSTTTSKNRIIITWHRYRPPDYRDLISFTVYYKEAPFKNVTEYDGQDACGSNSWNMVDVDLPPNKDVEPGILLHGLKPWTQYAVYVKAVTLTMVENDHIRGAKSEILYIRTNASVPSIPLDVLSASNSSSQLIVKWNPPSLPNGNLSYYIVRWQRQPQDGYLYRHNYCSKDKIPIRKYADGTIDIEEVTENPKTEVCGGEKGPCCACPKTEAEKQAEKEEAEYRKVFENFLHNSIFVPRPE
Insulin-like growth factor 1 receptor, sequence (P08069 741-1367 limits assumed): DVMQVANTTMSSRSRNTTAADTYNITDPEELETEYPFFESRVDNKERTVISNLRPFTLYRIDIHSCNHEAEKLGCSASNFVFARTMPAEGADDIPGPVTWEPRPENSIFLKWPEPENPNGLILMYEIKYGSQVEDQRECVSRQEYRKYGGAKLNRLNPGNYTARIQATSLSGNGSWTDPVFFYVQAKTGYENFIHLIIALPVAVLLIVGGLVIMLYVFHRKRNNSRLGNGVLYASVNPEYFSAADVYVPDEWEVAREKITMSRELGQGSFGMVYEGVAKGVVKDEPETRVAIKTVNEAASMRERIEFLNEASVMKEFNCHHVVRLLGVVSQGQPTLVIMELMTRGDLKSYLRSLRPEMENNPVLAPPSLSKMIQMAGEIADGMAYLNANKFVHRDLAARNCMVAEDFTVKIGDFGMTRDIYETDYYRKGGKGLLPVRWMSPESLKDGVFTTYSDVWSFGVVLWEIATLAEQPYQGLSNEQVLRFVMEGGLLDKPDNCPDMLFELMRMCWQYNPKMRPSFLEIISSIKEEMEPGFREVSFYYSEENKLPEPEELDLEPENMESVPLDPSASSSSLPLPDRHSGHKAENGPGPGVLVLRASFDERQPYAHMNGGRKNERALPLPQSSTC
Tyrosine-protein kinase CSK, sequence (P41240 whole entry): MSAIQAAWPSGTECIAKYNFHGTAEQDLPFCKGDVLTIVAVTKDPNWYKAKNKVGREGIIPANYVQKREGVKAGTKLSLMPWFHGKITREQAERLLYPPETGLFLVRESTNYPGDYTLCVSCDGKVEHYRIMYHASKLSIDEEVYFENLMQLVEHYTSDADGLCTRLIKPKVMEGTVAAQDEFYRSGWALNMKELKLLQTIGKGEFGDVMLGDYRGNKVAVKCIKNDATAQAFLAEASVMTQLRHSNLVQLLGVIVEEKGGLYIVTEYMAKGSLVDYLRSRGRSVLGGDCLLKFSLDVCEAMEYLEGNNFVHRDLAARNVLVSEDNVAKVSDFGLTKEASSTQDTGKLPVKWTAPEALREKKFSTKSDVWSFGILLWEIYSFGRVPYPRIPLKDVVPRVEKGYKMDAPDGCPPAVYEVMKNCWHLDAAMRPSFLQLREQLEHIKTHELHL
Proto-oncogene tyrosine-protein kinase Src, sequence (P12931 2-536 limits assumed): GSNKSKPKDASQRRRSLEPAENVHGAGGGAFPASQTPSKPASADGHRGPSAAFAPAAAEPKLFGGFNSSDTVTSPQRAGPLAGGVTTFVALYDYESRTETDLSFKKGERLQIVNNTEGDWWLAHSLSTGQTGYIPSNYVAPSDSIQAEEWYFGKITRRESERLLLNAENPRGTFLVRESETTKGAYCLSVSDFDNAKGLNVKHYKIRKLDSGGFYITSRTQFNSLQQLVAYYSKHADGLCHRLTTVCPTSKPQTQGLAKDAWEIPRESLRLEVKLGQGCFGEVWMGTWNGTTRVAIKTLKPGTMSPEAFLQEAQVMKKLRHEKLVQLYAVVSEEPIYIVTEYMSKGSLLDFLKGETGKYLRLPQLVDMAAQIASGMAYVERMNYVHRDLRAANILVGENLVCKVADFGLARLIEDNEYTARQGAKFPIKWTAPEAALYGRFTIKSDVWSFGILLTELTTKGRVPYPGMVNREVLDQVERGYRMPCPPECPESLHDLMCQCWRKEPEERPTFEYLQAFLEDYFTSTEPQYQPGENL
Aurora kinase B, sequence (Q96GD4 whole entry): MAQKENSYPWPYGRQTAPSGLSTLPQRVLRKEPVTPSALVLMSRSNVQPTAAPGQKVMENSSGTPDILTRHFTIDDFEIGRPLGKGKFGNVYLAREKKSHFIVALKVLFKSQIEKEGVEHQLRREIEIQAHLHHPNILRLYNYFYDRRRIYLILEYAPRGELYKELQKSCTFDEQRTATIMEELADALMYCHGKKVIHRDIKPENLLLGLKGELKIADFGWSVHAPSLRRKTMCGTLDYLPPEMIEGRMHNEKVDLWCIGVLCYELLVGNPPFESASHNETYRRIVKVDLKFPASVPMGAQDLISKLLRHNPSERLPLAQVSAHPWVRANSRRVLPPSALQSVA
Mitogen-activated protein kinase 14, sequence (Q16539 whole entry): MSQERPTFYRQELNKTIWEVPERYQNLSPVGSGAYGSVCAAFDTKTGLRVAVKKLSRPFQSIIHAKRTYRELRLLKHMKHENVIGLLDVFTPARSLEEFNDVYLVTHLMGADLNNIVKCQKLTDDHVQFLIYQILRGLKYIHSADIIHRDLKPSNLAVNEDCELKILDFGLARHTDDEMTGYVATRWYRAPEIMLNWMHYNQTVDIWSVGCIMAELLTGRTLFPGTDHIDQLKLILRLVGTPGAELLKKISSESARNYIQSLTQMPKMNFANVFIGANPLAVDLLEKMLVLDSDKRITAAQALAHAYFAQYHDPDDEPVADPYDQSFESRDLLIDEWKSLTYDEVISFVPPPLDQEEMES

SMILES | IC50 [1] | IC50 (SW-620 [2]) | IC50 (Aurora kinase A) | also measured
C#CCN(CCO)CCCOc1cc2ncnc(Nc3ncc(CC(=O)Nc4cccc(F)c4)s3)c2cc1OC | < 1 nM | 20 nM | < 1 nM | 
COc1cc2c(Nc3ncc(SCc4cccc(F)c4)s3)ncnc2cc1OCCCN1CCC(CO)CC1 | < 1 nM | 400 nM | < 1 nM | 
CCS(=O)(=O)Nc1ccc2c(c1)/C(=C(/Nc1ccc(CN3CCCCC3)cc1)c1ccccc1)C(=O)N2 [HESPERADIN] |  |  |  | IC50 (Aurora kinase B): 250 nM
COc1cc2c(Nc3ncc(CC(=O)Nc4cccc(F)c4)s3)ncnc2cc1OCCCN1CCN(C)CC1 | < 1 nM | 2 nM | < 1 nM | 
COc1cc2c(Nc3ncc(CNS(=O)(=O)c4cccc(F)c4)s3)ncnc2cc1OCCCN1CCC(CO)CC1 | 28 nM | 800 nM | 12 nM | 
COc1cc2c(Nc3ncc(CC(=O)Nc4cccc(F)c4)s3)ncnc2cc1OCCCN1CCC(CO)CC1 | 7 nM | 5 nM |  | Vd [3]: 1.8 L/kg; clearance [4]: 16.6 mL/min/kg; half-life [5]: 5 h; IC50 [6]: 62000 nM; IC50 [7]: 21000 nM; solubility [8]: 35 µg/mL (≈ 0.0603 mM); IC50 (Focal adhesion kinase 1): 4000 nM; IC50 [9]: 8000 nM; IC50 [10]: 13000 nM; IC50 [11]: 25000 nM; IC50 [12]: > 100000 nM; IC50 [13]: 1000 nM; IC50 [14]: > 100000 nM; IC50 [15]: > 100000 nM; IC50 [16]: 3000 nM; fraction unbound [17]: 0.024; logD [18]: 3.2; IC50 (SW-620 [19]): 2 nM
COc1cc2c(Nc3ncc(CC(=O)Nc4cccc(N(C)C)c4)s3)ncnc2cc1OCCCN1CCC[C@H]1CO | 48 nM | 600 nM | 483 nM | 
COc1cc2c(Nc3ncc(CC(=O)Nc4cccc(F)c4)s3)ncnc2cc1OCCCNCCO | 1 nM | 80 nM |  | 
COc1cc2c(Nc3ncc(CC(=O)Nc4cccc(F)c4)s3)ncnc2cc1OCCN1CCC(CCO)CC1 | < 1 nM | 19 nM | < 1 nM | 
CCN(C(=O)Cc1cnc(Nc2ncnc3cc(OCCCN4CCOCC4)c(OC)cc23)s1)c1ccccc1 | 286 nM | 2300 nM | 55 nM | 
CCCCc1cnc(Nc2ncnc3cc(OCCCN4CCOCC4)c(OC)cc23)s1 | 63 nM | 1900 nM | 6 nM | 
COc1cc2c(Nc3ncc(CC(=O)Nc4cccc(F)c4)s3)ncnc2cc1OCCCN1CCC(COP(=O)(O)O)CC1 |  |  |  | solubility [20]: 10000 µg/mL (≈ 15.1 mM); T1/2 (Mus musculus): 0.7 h
COc1cc2c(Nc3ncc(CC(=O)Nc4cccc(F)c4F)s3)ncnc2cc1OCCCN1CCC[C@H]1CO |  | 1 nM | 2 nM | 
COc1cc2c(Nc3ncc(C(=O)Nc4ccc(F)cc4)s3)ncnc2cc1OCCCN1CCOCC1 | 49 nM | 600 nM | 1 nM | 
COc1cc2c(Nc3ncc(CNC(=O)c4cccc(F)c4)s3)ncnc2cc1OCCCN1CCC(CO)CC1 | 136 nM | 2800 nM | 111 nM | 
COCCOc1cc2ncnc(Nc3ncc(CC(=O)Nc4cccc(F)c4)s3)c2cc1OC | 8 nM | 10 nM | 1 nM | 
COc1cc2c(Nc3ncc(CC(=O)NCCC(C)C)s3)ncnc2cc1OCCCN1CCOCC1 | 5 nM | 400 nM | 158 nM | 
CCN(CCO)CCCOc1cc2ncnc(Nc3ncc(CC(=O)Nc4cccc(F)c4)s3)c2cc1OC | < 1 nM | < 1 nM | < 1 nM | 
COc1cc2c(Nc3ncc(CC(=O)Nc4cccc(F)c4)o3)ncnc2cc1OCCCN1CCOCC1 | 341 nM | 1000 nM | 472 nM | 
COc1cc2c(Nc3ncc(CC(=O)Nc4ccccc4C(N)=O)s3)ncnc2cc1OCCCN1CCC[C@H]1CO | 282 nM | > 10000 nM | 452 nM | 
COc1cc2c(Nc3ncc(C)s3)ncnc2cc1OCCCN1CCOCC1 | 133 nM | 1100 nM | 43 nM | 
COc1cc2c(Nc3ncc(CC(=O)Nc4cccc(F)c4)s3)ncnc2cc1OCCCN1CCOCC1 | < 1 nM | < 1 nM | < 1 nM | 
COc1cc2c(Nc3nc(CC(=O)Nc4cccc(F)c4)cs3)ncnc2cc1OCCCN1CCOCC1 | 12 nM | 200 nM | 578 nM | 
COc1cc2c(Nc3ncc(Oc4cccc(F)c4)s3)ncnc2cc1OCCCN1CCC(CO)CC1 | < 1 nM | 200 nM |  | 
COc1cc2c(Nc3nc(C(=O)Nc4ccc(F)cc4)c[nH]3)ncnc2cc1OCCCN1CCOCC1 | > 1000 nM | > 10000 nM | > 1000 nM | 
COc1cc2c(Nc3ncc(CC(=O)Nc4cccc(F)c4)s3)ncnc2cc1OCCCN1CCC[C@H]1CO | < 1 nM | 4 nM | < 1 nM | 
COc1cccc(NC(=O)Cc2cnc(Nc3ncnc4cc(OCCCN5CCC[C@H]5CO)c(OC)cc34)s2)c1 | 5 nM | 1000 nM | 106 nM | 
